# According to ChEMBL document CHEMBL2029309, “Proposed Bioactive Conformations of Opiorphin, an Endogenous Dual APN/NEP Inhibitor” (ACS Med Chem Lett, 2012):
# Peptide text beside a SMILES is read from it.
# Legend:
# Neprilysin [1] = target: T1, Neprilysin (Homo sapiens, UniProt P08473); experiment: Inhibition of human neprilysin
# Aminopeptidase N [2] = target: T2, Aminopeptidase N (Homo sapiens, UniProt P15144); experiment: Inhibition of human aminopeptidase N
# Neprilysin [3] = target: T1, Neprilysin; experiment: Inhibition of human recombinant neprilysin using Abz-dR-G-L-EDDnp as substrate incubated for 10 mins prior to substrate addition measured for 40 mins by fluorometry
# Aminopeptidase N [4] = target: T2, Aminopeptidase N; experiment: Inhibition of human recombinant aminopeptidase N using Ala-Mca as substrate incubated for 10 mins prior to substrate addition measured for 40 mins by fluorometry
# T2 sequence (P15144 whole entry): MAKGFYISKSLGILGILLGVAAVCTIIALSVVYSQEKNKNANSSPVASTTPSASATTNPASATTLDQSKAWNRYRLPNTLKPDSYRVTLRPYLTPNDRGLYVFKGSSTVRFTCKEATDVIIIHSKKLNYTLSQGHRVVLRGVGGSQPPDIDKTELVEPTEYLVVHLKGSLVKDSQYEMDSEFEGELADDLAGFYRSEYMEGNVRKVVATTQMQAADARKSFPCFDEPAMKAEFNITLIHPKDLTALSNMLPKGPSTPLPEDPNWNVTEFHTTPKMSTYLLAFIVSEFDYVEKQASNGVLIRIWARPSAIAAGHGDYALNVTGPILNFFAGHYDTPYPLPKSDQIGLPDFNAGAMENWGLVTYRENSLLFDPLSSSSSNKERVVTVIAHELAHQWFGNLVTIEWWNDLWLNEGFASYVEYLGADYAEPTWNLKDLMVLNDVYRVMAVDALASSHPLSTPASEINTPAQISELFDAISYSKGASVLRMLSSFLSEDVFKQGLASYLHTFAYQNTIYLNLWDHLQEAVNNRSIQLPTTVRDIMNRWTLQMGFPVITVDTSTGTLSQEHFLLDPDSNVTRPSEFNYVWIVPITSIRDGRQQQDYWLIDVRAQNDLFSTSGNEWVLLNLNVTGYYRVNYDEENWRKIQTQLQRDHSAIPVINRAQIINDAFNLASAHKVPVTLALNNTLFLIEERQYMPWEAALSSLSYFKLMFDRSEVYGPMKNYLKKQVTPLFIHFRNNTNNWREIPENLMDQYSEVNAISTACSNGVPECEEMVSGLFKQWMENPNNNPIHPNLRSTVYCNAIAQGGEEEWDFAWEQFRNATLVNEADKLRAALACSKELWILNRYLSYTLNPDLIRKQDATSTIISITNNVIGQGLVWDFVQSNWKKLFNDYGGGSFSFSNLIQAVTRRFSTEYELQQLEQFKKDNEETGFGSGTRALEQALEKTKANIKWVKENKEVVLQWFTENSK
# T1 sequence (P08473 whole entry): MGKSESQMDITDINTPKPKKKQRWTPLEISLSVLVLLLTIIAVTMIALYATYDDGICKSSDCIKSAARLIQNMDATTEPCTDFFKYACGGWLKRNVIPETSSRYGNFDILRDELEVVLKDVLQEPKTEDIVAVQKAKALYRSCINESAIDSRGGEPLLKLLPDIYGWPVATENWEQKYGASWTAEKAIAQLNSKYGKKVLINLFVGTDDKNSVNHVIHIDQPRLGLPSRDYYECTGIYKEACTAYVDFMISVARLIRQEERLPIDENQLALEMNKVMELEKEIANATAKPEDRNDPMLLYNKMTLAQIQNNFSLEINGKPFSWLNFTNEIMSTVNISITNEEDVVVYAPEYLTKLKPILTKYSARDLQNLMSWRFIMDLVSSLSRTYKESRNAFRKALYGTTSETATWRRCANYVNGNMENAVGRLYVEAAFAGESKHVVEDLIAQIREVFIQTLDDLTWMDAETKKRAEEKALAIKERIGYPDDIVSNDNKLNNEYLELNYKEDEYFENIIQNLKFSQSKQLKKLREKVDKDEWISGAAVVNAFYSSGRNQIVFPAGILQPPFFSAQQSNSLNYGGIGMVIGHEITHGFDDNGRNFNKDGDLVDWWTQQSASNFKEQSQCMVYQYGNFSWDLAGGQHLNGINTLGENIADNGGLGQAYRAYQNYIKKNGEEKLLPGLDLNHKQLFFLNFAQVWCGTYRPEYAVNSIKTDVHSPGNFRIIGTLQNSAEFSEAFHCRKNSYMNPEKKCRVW
IC50 (Neprilysin [1]),IC50 (Aminopeptidase N [2]),IC50 (Neprilysin [3]),IC50 (Aminopeptidase N [4]),Compound
–,–,51 µM,122 µM,H-FQRFSR-OH
–,–,130 µM,> 100 µM,H-NRFSR-OH
180 µM,–,–,–,N=C(N)NCCC[C@H](NC(=O)[C@H](CO)NC(=O)[C@H](Cc1ccccc1)NC(=O)[C@@H](N)CCCNC(=N)N)C(=O)O [OPIORPHIN (2-5)] (H-RFSR-OH)

# The remaining lines, values behind:
Compound,IC50 (Neprilysin [1]),IC50 (Aminopeptidase N [2]),IC50 (Neprilysin [3]),IC50 (Aminopeptidase N [4])
N=C(N)NCCC[C@H](NC(=O)[C@@H](N)CCC(N)=O)C(=O)N[C@@H](Cc1ccccc1)C(=O)N[C@@H](CO)C(=O)O [OPIORPHIN (1-4)] (H-QRFS-OH),> 100 µM,–,–,–
NC(N)=NCCC[C@H](NC(=O)[C@H](CO)NC(=O)[C@@H](N)Cc1ccccc1)C(=O)O [OPIORPHIN (3-5)] (H-Phe-Ser-Arg-OH),7 µM,120 µM,–,–
H-QRFTR-OH,–,–,> 100 µM,> 100 µM
